Drawing on ChEMBL document CHEMBL5241090, “A comprehensive overview of β-carbolines and its derivatives as anticancer agents” (Eur J Med Chem, 2021), this text covers IC50 for twelve compounds.

≈ marks a conversion by molar mass, not a printed value.

The subject of assay [1] is HCT-116. Put plainly: Cytotoxicity against human HCT-116 cells. The class given is functional, cell-based.
The subject of assay [2] is NCI-H460. The assay can be described thus: Cytotoxicity against human NCI-H460 cells. The class given is functional, cell-based.
For assay [3], the system named is HCT-15. Put plainly: Cytotoxicity against human HCT-15 cells. It is filed as functional, cell-based.
In assay [4] the test system is MCF7. Put plainly: Cytotoxicity against human MCF7 cells. The class given is functional, cell-based.
For assay [5], the system named is A549. The assay can be described thus: Cytotoxicity against human A549 cells. It is filed as functional, cell-based.
Assay [6] deals with Serine/threonine-protein kinase haspin (Homo sapiens, UniProt Q8TF76). Put plainly: Inhibition of HASPIN (unknown origin).
In assay [7] the test system is L1210. Put plainly: Cytotoxicity against mouse L1210 cells. The class given is functional, cell-based.
Assay [8] has as its system MT4. The assay can be described thus: Cytotoxicity against human MT4 cells. The class given is functional, cell-based.
For assay [9], the system named is MOLT-4F. The assay can be described thus: Cytotoxicity against human MOLT-4F cells. It is filed as functional, cell-based.
Assay [10] deals with RAW264.7. Put plainly: Cytotoxicity against mouse RAW264.7 cells. It is filed as functional, cell-based.
Assay [11] concerns HL-60. The assay can be described thus: Cytotoxicity against human HL-60 cells. The class given is functional, cell-based. The following applies: Homo sapiens, HL-60; read-out: IC50.
For assay [12], the system named is THP-1. Put plainly: Cytotoxicity against human THP-1 cells. It is filed as functional, cell-based.
Assay [13] deals with BT-474. Put plainly: Cytotoxicity against human BT-474 cells. The class given is functional, cell-based.
Assay [14] concerns MOLT-4. Put plainly: Cytotoxicity against human MOLT-4 cells. The class given is functional, cell-based.
The target in assay [15] is Cyclin-dependent kinase 2/cyclin A (Homo sapiens, UniProt P24941). Put plainly: Inhibition of CDK2/Cyclin A (unknown origin). It is filed as protein-complex assay.
For assay [16], the target named is Serine/threonine-protein kinase PLK1 (Homo sapiens, UniProt P53350). The assay can be described thus: Inhibition of PLK1 (unknown origin).
In assay [17] the test system is SMMC-7721. The assay can be described thus: Cytotoxicity against human SMMC-7721 cells measured after 48 hrs by MTT assay. The class given is functional, cell-based. The following applies: SMMC-7721, 48 h. (Formazan colour is commonly taken as a measure of viable cells.)
Assay [18] deals with EJ. The assay can be described thus: Cytotoxicity against human EJ cells measured after 48 hrs by MTT assay. It is filed as functional, cell-based.
Assay [19] deals with NCI-H460. The assay can be described thus: Cytotoxicity against human NCI-H460 cells measured after 48 hrs by MTT assay. The class given is functional, cell-based. The following applies: NCI-H460, 48 h.
Assay [20] relates to HCT-116. The assay can be described thus: Cytotoxicity against human HCT-116 cells measured after 48 hrs by MTT assay. It is filed as functional, cell-based. The following applies: HCT-116, 48 h.
Assay [21] has as its system HepG2. Put plainly: Cytotoxicity against human HepG2 cells measured after 48 hrs by MTT assay. The class given is functional, cell-based. The following applies: HepG2, 48 h.
Assay [22] deals with HT-29. The assay can be described thus: Antitumor activity against human HT-29 cells assessed as inhibition of cell growth measured after 48 hrs by spectrophotometric analysis. It is filed as functional, cell-based. The following applies: HT-29, 48 h.
Assay [23] relates to PC-3. The assay can be described thus: Antitumor activity against human PC-3 cells assessed as inhibition of cell growth measured after 48 hrs by spectrophotometric analysis. It is filed as functional, cell-based. The following applies: PC-3, 48 h.
The subject of assay [24] is U-251. Put plainly: Antitumor activity against human U-251 cells assessed as inhibition of cell growth measured after 48 hrs by spectrophotometric analysis. It is filed as functional, cell-based. The following applies: U-251, 48 h.
For assay [25], the system named is OVCAR-3. Put plainly: Antitumor activity against human OVCAR-3 cells assessed as inhibition of cell growth measured after 48 hrs by spectrophotometric analysis. It is filed as functional, cell-based. Particulars: OVCAR-3, 48 h.
Assay [26] concerns NCI-H460. The assay can be described thus: Antitumor activity against human NCI-H460 cells assessed as inhibition of cell growth measured after 48 hrs by spectrophotometric analysis. The class given is functional, cell-based. The following applies: NCI-H460, 48 h.
The test system of assay [27] is 786-0. The assay can be described thus: Antitumor activity against human 786-0 cells assessed as inhibition of cell growth measured after 48 hrs by spectrophotometric analysis. The following applies: 786-0, 48 h. It is filed as functional, cell-based.
Assay [28] concerns NCI/ADR-RES. Put plainly: Antitumor activity against human NCI-ADR-RES cells assessed as inhibition of cell growth measured after 48 hrs by spectrophotometric analysis. The class given is functional, cell-based.
In assay [29] the test system is HaCaT. The assay can be described thus: Antitumor activity against human HaCaT cells assessed as inhibition of cell growth measured after 48 hrs by spectrophotometric analysis. It is filed as functional, cell-based.
Assay [30] relates to MCF7. Put plainly: Antitumor activity against human MCF7 cells assessed as inhibition of cell growth measured after 48 hrs by spectrophotometric analysis. It is filed as functional, cell-based. The following applies: MCF7, 48 h.
The subject of assay [31] is PC-3. Put plainly: Cytotoxicity against human PC-3 cells by MTT assay. It is filed as functional, cell-based.
Assay [32] concerns SW480. The assay can be described thus: Cytotoxicity against human SW480 cells by MTT assay. It is filed as functional, cell-based.
For assay [33], the system named is OVCAR-3. The assay can be described thus: Cytotoxicity against human OVCAR-3 cells by MTT assay. The class given is functional, cell-based.
The subject of assay [34] is SR. Put plainly: Cytotoxicity against human SR cells. It is filed as functional, cell-based.
Assay [35] relates to RPMI-8226. Put plainly: Cytotoxicity against human RPMI-8226 cells. It is filed as functional, cell-based.
Assay [36] has as its system HepG2. Put plainly: Cytotoxicity against human HepG2 cells measured after 24 hrs by MTT assay. The following applies: HepG2, 24 h. It is filed as functional, cell-based.
Assay [37] relates to HeLa. The assay can be described thus: Cytotoxicity against human HeLa cells measured after 24 hrs by MTT assay. It is filed as functional, cell-based.

Serine/threonine-protein kinase haspin, sequence (Q8TF76 whole entry): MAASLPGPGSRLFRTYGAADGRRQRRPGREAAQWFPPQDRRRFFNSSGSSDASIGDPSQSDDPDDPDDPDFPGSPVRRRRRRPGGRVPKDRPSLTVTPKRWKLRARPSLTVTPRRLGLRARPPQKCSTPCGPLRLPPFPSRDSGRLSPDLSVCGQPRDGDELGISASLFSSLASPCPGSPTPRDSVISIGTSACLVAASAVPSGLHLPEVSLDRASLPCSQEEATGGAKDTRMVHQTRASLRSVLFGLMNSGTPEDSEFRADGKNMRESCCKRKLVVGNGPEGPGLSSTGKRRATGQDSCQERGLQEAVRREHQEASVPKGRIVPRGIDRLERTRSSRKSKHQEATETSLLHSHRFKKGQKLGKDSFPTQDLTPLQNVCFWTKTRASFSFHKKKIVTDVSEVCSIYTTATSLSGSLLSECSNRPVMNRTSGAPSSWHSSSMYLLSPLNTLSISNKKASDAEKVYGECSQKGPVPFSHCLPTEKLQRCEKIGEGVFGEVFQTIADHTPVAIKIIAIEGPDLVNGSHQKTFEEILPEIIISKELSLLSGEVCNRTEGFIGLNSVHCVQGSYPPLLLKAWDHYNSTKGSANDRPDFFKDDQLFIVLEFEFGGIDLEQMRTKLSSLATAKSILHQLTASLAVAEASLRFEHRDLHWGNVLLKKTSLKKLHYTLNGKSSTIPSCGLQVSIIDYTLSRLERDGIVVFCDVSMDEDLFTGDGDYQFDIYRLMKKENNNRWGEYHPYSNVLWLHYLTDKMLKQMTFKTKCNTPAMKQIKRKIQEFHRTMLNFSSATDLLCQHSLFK
Serine/threonine-protein kinase PLK1, sequence (P53350 whole entry): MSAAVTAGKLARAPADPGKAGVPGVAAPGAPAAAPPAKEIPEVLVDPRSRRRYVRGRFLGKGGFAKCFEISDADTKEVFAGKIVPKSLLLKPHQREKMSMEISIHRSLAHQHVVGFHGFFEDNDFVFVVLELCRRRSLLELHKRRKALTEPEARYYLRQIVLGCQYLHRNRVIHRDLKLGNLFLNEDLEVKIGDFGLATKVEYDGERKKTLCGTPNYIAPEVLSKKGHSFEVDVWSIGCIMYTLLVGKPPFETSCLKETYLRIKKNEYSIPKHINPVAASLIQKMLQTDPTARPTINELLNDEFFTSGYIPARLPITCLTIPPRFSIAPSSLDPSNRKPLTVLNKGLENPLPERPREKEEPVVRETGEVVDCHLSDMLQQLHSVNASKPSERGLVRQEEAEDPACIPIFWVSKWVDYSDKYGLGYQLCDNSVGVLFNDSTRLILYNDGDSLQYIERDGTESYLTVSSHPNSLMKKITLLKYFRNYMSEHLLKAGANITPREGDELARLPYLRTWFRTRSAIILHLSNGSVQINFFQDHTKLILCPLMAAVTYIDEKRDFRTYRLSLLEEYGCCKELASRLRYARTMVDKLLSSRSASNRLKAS

In general, IC50 refers to the concentration that gives 50% inhibition. As for `COc1ccc(OC)c(-c2nc(/C=C3/C(=O)N(Cc4ccccc4)c4ccc(Br)cc43)cc3c2[nH]c2ccccc23)c1`, the IC50 in assay [1], in assay [2], in [3], in assay [4] and in assay [5] was 1430 nM in each case.

As for `Cc1nccc2c1[nH]c1cc(O)ccc12`, the half-maximal inhibitory concentration (IC50) in assay [6] was 770 nM.

For the compound `COc1ccc2[nH]c3c(c2c1)CCN1OCSC[C@@H](N)C31` (stereo partly specified), the IC50 in [7] stood at 5 ng/mL (≈ 0.0164 µM); in assay [8] it was 5 ng/mL (≈ 0.0164 µM); in assay [9] it was 6.2 ng/mL (≈ 0.0203 µM).

For `CN1CCN(C(=O)[C@H]2Cc3c([nH]c4ccccc34)CN2Cc2ccc3ccccc3c2Br)CC1`, the IC50 in assay [10] came out at 18000 nM.

With `COc1ccc(-c2nc(C(=O)Nc3nc4ccc([N+](=O)[O-])cc4s3)cc3c2[nH]c2ccccc23)cc1`, the IC50 in [1], in assay [11], in assay [12], in assay [2], in assay [13] and in [5] was 1460 nM each time. The IC50 in assay [14] is 1460 nM.

Take `CCCC[n+]1ccc2c3ccccc3n(Cc3ccccc3)c2c1-c1ccccc1Cl`: in assay [15], the IC50 came to 27000 nM.

`COc1ccc2c3cc[n+](CCCc4ccccc4)c(C)c3n(Cc3cccc(Cl)c3)c2c1` came in with an IC50 in assay [16] of 897 nM.

As to `Cc1nc(C(=O)NCCCCNC(=O)c2ccccc2O)cc2c1[nH]c1ccccc12`, the IC50 in [17], in assay [18], in assay [19], in assay [20] and in [21] was 6970 nM throughout.

As to `c1ccc(-c2nc(-c3nnc4snnn34)cc3c2[nH]c2ccccc23)cc1`, the half-inhibitory concentration (IC50) in assay [22], in assay [23], in [24], in assay [25], in assay [26] and in assay [27] was 80 nM in each case. Moreover, the IC50 in assay [28], in assay [29] and in assay [30] was 80 nM throughout.

In the case of `CC(C)OC(=O)c1cc2c([nH]c3ccccc32)c(-c2cccc3ccccc23)n1`, the results for the half-maximal inhibitory concentration (IC50) in assay [31], in assay [32] and in assay [33] were 7100 nM, 2700 nM and 7500 nM, respectively.

As to `O=C(Cn1c2ccccc2c2ccncc21)N/N=C/c1cccc2ccccc12`, the IC50 stood at 3500 nM in assay [1], 6300 nM in assay [34] and 7800 nM in assay [35].

Take `COC(=O)c1cc2c([nH]c3ccccc32)c(-c2cccc(OCc3cn(-c4ccc(Cl)c(Cl)c4)nn3)c2)n1`: the IC50 worked out at 32000 nM in assay [36] and 46000 nM in assay [37].
